Measured values as given in US20170036969A1, “NITRIFICATION INHIBITORS” (BASF SE, priority 2014, published 2017).

tested on: nitrification in soil sampled fresh from a field (e.g. Limburgerhof); test: Soil nitrification inhibition test (48 well plate, ammonium sulfate + NaClO3, colour reaction read at 540 nm); details: dose of 10 ppm, room temperature, up to 72 hrs
Protocol: Soil was sampled fresh from a field (e.g. Limburgerhof), dried and sieved through a 500 μm sieve. Approximately 200 mg of soil were placed into each well of a 48 well plate. Compounds, or DMSO alone, were added at a concentration of 10 ppm, dissolved in 1% DMSO. 6 μmol ammonium sulfate was added per well as well as 4.8 mg NaClO3.
Subsequently, the samples were incubated at room temperature for up to 72 hrs. After the incubation period 64 mg KCl were added and mixed. 25 μl of the supernatant were placed into a fresh plate and 260 μl of a color reaction solution (from Merck Nr 1.11799.0100) were added.
Measurements were taken with a Tecan plate Reader at 540 nm wavelength.
The inhibition in % is calculated by the equation [(a−b)/a]×100, wherein a is the nitrification rate in the presence of the control (which is assumed to be 100%), and b is the nitrification rate in the presence of the tested compound.

SMILES | Rating (inhibition; best rating obtained for a compound) [%]
C#CCOc1ccc(OCC#C)cc1 | 66
C#CCOc1cccc(C(O)C#C)c1 (stereo not shown) | 61
C#CCOc1ccc(Cl)cc1 | 59
C#CCOc1ccc(OC)cc1 | 58
C#CCOc1ccc(C(=O)N2CCOCC2)cc1 | 57
C#CCOc1cc(N)c(F)cc1Cl | 62
C#CCOc1cc(NC(=S)N(N)CCO)c(F)cc1Cl | 56
C#CCOc1ccc(NC(=O)N(C)C)cc1Cl | 55
C#CCOc1ccc(C#N)cc1 | 53
C#CCOc1cc(NC=O)c(F)cc1Cl | 48
